Assay results reported in patent US20190343908A1, “Therapeutic Combination for the Treatment of Cancer” (Nerium Biotechnology Inc., priority 2011, published 2019).

How the values were obtained:
[1] = system: HCT-116 (colorectal cancer); assay: Methyl-Tetrazolium viability assay, HCT-116; format: cell-based, human; design: key: absorbance (optical density) at 570 nm, second wavelength subtracted; conditions: for Average MTT: HCT-116
Excerpt: (§1) Three different viability assays were chosen to complement each other and yielded results dependent on concentration and cell line: the Methyl Tetrazolium dye assay, the Sulforhodamine B fluorescent dye assay, and the Crystal Violet dye assay.
(§2) The Methyl-Tetrazolium dye assay measures the activity of enzymes in mitochondria. The dye precursor is taken up by cells, where it undergoes reduction to the purple formazan. It measures only the mitochondrial activity and, thus, it is not always a reliable indication of whether the cells themselves are alive or dead, since even a recently dead cell has […] enzyme activity in mitochondria. Intracellular glucose concentration, pH, and time before assay all affect the measurements.
(§3) The Methyl Tetrazolium, Sulforhodamine B, and Crystal Violet assays were used to assess cell viabilities. The incubation times were 24 hours, 48 hours, and 72 hours. The Nerium oleander extract Anvirzel™ (a hot water extract of oleander obtained from Salud Integral, Honduras) was tested in concentrations ranging from 0.01 ng/mL to 10 ng/mL.
(§4) Cells were detached by trypsinization (Trypsin-0.25% EDTA, Invitrogen, 25200-072) during the logarithmic phase of culture growth and plated in 96-well plates (18.000 cells/well) (Corning, Costar 359) in a final volume of 200 μl of medium per well. […] The absorbance was measured after 24 hours, 48 hours, and 72 hours of incubation.
(§5) For the Methyl-Tetrazolium assay, the dye (Sigma, M2128; 5 mg/mL, diluted in phosphate-buffered saline) was added to each well and plates were incubated for 3 hours at 37° C. After the end of the incubation period, the medium was discarded and the cells were rinsed with phosphate-buffered saline. Finally, the formazan crystals were dissolved in dimethylsulphoxide (Sigma, D4540).
(§6) The optical density of each plate was measured on a μQuant spectrophotometer and the data were analyzed with Gen5 software (μQuant Biomolecular Spectrophotometer MQX200 and Gen5™ Microplate Data Collection & Analysis software, BioTek® Instruments. Inc, April 2008). Absorbance was measured at 570 nm for all assays and a second wavelength was measured in order to subtract noise. For the Methyl-Tetrazolium assay this second wavelength was 630 nm and for the Sulforhodamine B and Crystal Violet assays it was 690 nm.

[2] = system: T47D (human breast cancer); assay: Methyl-Tetrazolium viability assay, T47D; format: cell-based; design: key: absorbance (optical density) at 570 nm, second wavelength subtracted
Excerpt: as §1, §2, §3, §4, §5, §6

N.N.[Cl][Pt][Cl] [cisplatin]
MTT Average ([1]; HCT-116, Run 3, 24 h, 0.1 μg/ml CDDP): 0.16 | MTT Average ([1]; HCT-116, Run 3, 24 h, 1 μg/ml CDDP): 0.041 | MTT Average ([1]; HCT-116, Run 3, 24 h, 10 μg/ml CDDP): 0.09 | MTT Average ([1]; HCT-116, Run 3, 24 h, 100 μg/ml CDDP): 0.044 | MTT Average ([1]; HCT-116, Run 3, 48 h, 0.1 μg/ml CDDP): 0.302 | MTT Average ([1]; HCT-116, Run 3, 48 h, 1 μg/ml CDDP): 0.039 | MTT Average ([1]; HCT-116, Run 3, 48 h, 10 μg/ml CDDP): 0.108 | MTT Average ([1]; HCT-116, Run 3, 48 h, 100 μg/ml CDDP): 0.037 | MTT Average ([1]; HCT-116, Run 3, 72 h, 0.1 μg/ml CDDP): 0.385 | MTT Average ([1]; HCT-116, Run 3, 72 h, 1 μg/ml CDDP): 0.041 | MTT Average ([1]; HCT-116, Run 3, 72 h, 10 μg/ml CDDP): 0.147 | MTT Average ([1]; HCT-116, Run 3, 72 h, 100 μg/ml CDDP): 0.043 | Average MTT ([1]; Run 1, 24 h, 0.1 μg/ml CDDP): 0.215 | Average MTT ([1]; Run 1, 24 h, 1 μg/ml CDDP): 0.037 | Average MTT ([1]; Run 1, 24 h, 10 μg/ml CDDP): 0.072 | Average MTT ([1]; Run 1, 24 h, 100 μg/ml CDDP): 0.038 | Average MTT ([1]; Run 1, 48 h, 0.1 μg/ml CDDP): 0.184 | Average MTT ([1]; Run 1, 48 h, 1 μg/ml CDDP): 0.027 | Average MTT ([1]; Run 1, 48 h, 10 μg/ml CDDP): 0.054 | Average MTT ([1]; Run 1, 48 h, 100 μg/ml CDDP): 0.031 | Average MTT ([1]; Run 1, 72 h, 0.1 μg/ml CDDP): 0.332 | Average MTT ([1]; Run 1, 72 h, 1 μg/ml CDDP): 0.03 | Average MTT ([1]; Run 1, 72 h, 10 μg/ml CDDP): 0.033 | Average MTT ([1]; Run 1, 72 h, 100 μg/ml CDDP): 0.031 | Average MTT ([1]; Run 2, 24 h, 0.1 μg/ml CDDP): 0.111 | Average MTT ([1]; Run 2, 24 h, 1 μg/ml CDDP): 0.053 | Average MTT ([1]; Run 2, 24 h, 10 μg/ml CDDP): 0.081 | Average MTT ([1]; Run 2, 24 h, 100 μg/ml CDDP): 0.072 | Average MTT ([1]; Run 2, 48 h, 0.1 μg/ml CDDP): 0.179 | Average MTT ([1]; Run 2, 48 h, 1 μg/ml CDDP): 0.044 | Average MTT ([1]; Run 2, 48 h, 10 μg/ml CDDP): 0.045 | Average MTT ([1]; Run 2, 48 h, 100 μg/ml CDDP): 0.04 | Average MTT ([1]; Run 2, 72 h, 0.1 μg/ml CDDP): 0.296 | Average MTT ([1]; Run 2, 72 h, 1 μg/ml CDDP): 0.054 | Average MTT ([1]; Run 2, 72 h, 10 μg/ml CDDP): 0.045 | Average MTT ([1]; Run 2, 72 h, 100 μg/ml CDDP): 0.037 | MTT Average ([2]; T47D Run 1, 24 h, 0.1 μg/ml CDDP): 0.166 | MTT Average ([2]; T47D Run 1, 24 h, 1 μg/ml CDDP): 0.033 | MTT Average ([2]; T47D Run 1, 24 h, 10 μg/ml CDDP): 0.046 | MTT Average ([2]; T47D Run 1, 24 h, 100 μg/ml CDDP): 0.045 | MTT Average ([2]; T47D Run 1, 48 h, 1 μg/ml CDDP): 0.039 | MTT Average ([2]; T47D Run 1, 48 h, 10 μg/ml CDDP): 0.044 | MTT Average ([2]; T47D Run 1, 48 h, 100 μg/ml CDDP): 0.038 | MTT Average ([2]; T47D Run 1, 72 h, 0.1 μg/ml CDDP): 0.336 | MTT Average ([2]; T47D Run 1, 72 h, 1 μg/ml CDDP): 0.04 | MTT Average ([2]; T47D Run 1, 72 h, 10 μg/ml CDDP): 0.05 | MTT Average ([2]; T47D Run 1, 72 h, 100 μg/ml CDDP): 0.049 | MTT Average ([2]; T47D Run 2, 24 h, 0.1 μg/ml CDDP): 0.181 | MTT Average ([2]; T47D Run 2, 24 h, 1 μg/ml CDDP): 0.051 | MTT Average ([2]; T47D Run 2, 24 h, 10 μg/ml CDDP): 0.07 | MTT Average ([2]; T47D Run 2, 24 h, 100 μg/ml CDDP): 0.051 | MTT Average ([2]; T47D Run 2, 48 h, 0.1 μg/ml CDDP): 0.262 | MTT Average ([2]; T47D Run 2, 48 h, 1 μg/ml CDDP): 0.052 | MTT Average ([2]; T47D Run 2, 48 h, 10 μg/ml CDDP): 0.066 | MTT Average ([2]; T47D Run 2, 48 h, 100 μg/ml CDDP): 0.054 | MTT Average ([2]; T47D Run 2, 72 h, 0.1 μg/ml CDDP): 0.397 | MTT Average ([2]; T47D Run 2, 72 h, 1 μg/ml CDDP): 0.046 | MTT Average ([2]; T47D Run 2, 72 h, 10 μg/ml CDDP): 0.041 | MTT Average ([2]; T47D Run 2, 72 h, 100 μg/ml CDDP): 0.037 | MTT Average ([2]; T47D Run 3, 24 h, 1 μg/ml CDDP): 0.033 | MTT Average ([2]; T47D Run 3, 24 h, 10 μg/ml CDDP): 0.074 | MTT Average ([2]; T47D Run 3, 24 h, 100 μg/ml CDDP): 0.047 | MTT Average ([2]; T47D Run 3, 48 h, 0.1 μg/ml CDDP): 0.261 | MTT Average ([2]; T47D Run 3, 48 h, 1 μg/ml CDDP): 0.047 | MTT Average ([2]; T47D Run 3, 48 h, 10 μg/ml CDDP): 0.077 | MTT Average ([2]; T47D Run 3, 48 h, 100 μg/ml CDDP): 0.051 | MTT Average ([2]; T47D Run 3, 72 h, 0.1 μg/ml CDDP): 0.371 | MTT Average ([2]; T47D Run 3, 72 h, 1 μg/ml CDDP): 0.035 | MTT Average ([2]; T47D Run 3, 72 h, 10 μg/ml CDDP): 0.057 | MTT Average ([2]; T47D Run 3, 72 h, 100 μg/ml CDDP): 0.035
